The values that follow come from paper PMC3158126, “Characterization of antigenic variants of hepatitis C virus in immune evasion” (Virology Journal, 2011).

For assay [1], the system named is CD4+ cells from PBMC of HLA-DRB1*15-positive HCV-infected patients. Description: Intracellular cytokine staining and flow cytometry of purified CD4+ cells (Treg phenotypes), HCV+ patients. Type of assay: cell-based, human. Here is the method: (§1) PBMCs were re-suspended at a concentration of 1 × 10^6 /ml in RPMI 1640 tissue culture medium as mentioned above in the description of the proliferation assay. 1 ml aliquots of PBMC were added to a 24-well tissue culture plate containing each wild type NS3_358-375 or variant pool, and medium alone. The concentrations of peptides are 5 μM for NS3_358-375 and 1 μM for each of variant peptides. After culturing for 66 hours, the PBMCs were treated with anti-human CD4 antibodies and magnetic micro-beads (Miltenyi Biotec, Auburn, CA) for positive selection of CD4 cells using a Magnetic Cell Separator (MACS, Miltenyi Biotec). The purity of CD4^+ cells obtained was 99.3% determined by Flow Cytometry.
(§2) The purified CD4^+ cells were treated with 0.5 ml of fix/permeabilizing solution (BD Pharmingen) for 10 minutes. After washing, the appropriate volume of specific fluorescent-labeled anti-CD25-ECD, anti-IFN-γ-FITC, anti-IL-10-PE, anti-TGF-β1-biotin and streptavidin-CyChrome were added to each of the tubes. One additional tube of CD4^+ cells were incubated with Foxp3-FITC, CD152 (CTLA-4)-PE and CD25-ECD. A tube of pooled CD4^+ cells from each culture was stained with isotype antibodies equivalent to each of the antibodies described above. In addition, four tubes of pooled CD4^+ cells were stained with each of the above antibodies alone as single-color controls which is necessary for color compensation. All tubes were incubated for 30 minutes in dark at room temperature. After washing, cells were re-suspended in 300 μl of wash buffer (BD Pharmingen), and a four color or three-color flow cytometry assay was performed within 24 hours at the Flow Cytometry Service Laboratory of the University of Illinois at Chicago. A total 1 × 10^5 cells were counted to determine the ratio of CD25^+, CD25^- and cytokine producing cells of each CD4^+ population.
Figure 3 Treg phenotypes induced by peptide NS3_358-375 and variant pools VP1 and VP2. Cell culture adn purification of CD4^+ cells and controls were the same as described in Figure 2. Intracellular staining and four-color flow cytometry using fluorescent-labeled antibodies to human CD25, IFN-γ, TGF-β and IL-10 were performed with purified CD4^+ cells. A pool from each test was used as an isotype control. A: Percentages of CD25^+ gated CD4^+ cells. […] B: Percentages of Th3 and Tr1 cells. Note that 58~67% of the CD25^+ cells were TGF-β^+ (sum of the upper two quadrants). A majority of the CD25^+IL-10^+ cells were also TGF-β^+ (the upper right quadrant). C: Percentages of CD25^- gated CD4^+ cells. D: Percentages of Th3 and Tr1 cells. […] Two representatives of eight experiments are shown. […]

Assay [2] concerns the target HLA-DRB1*1501 molecules (Homo sapiens, UniProt P01903+P01911). Conditions: cited from earlier work. The source says: Our previous studies identified a CD4 epitope derived from the NS3 protein of HCV, NS3_358-375 [38]. […] Antigenic variants of the Th1 epitope were identified by RT-PCR, cloning and sequencing. Peptides of wild type NS3_358-375 and its variants (single or double amino acid substitutions) were synthesized and used in the current study (Table 1).

The test system of assay [3] is CD4+ T cells of HCV-infected patient. Description: Foxp3 and CTLA-4 (CD152) expression on CD4+CD25+ and CD4+CD25- cells, flow cytometry. The class given is cell-based, human. Here is the method:
as §2
Figure 4 Characteristics of antigen-driven CD25^+ and CD25^- Tregs. Cellular culture and separation of CD4^+ T cells and controls were the same as described in Figure 2. The purified CD4^+ cells were stained with fluorescent-labeled antibodies for human CD25, CTLA-4 and Foxp3 followed by a flow cytometry assay. The effect of peptide NS3_358-375 and variant pools VP1 and VP2 on expression of Foxp3 (A) and CTLA-4 (B) on CD4^+CD25^- (blue) and CD4^+CD25^+ (red) T cells is shown. Median values for each population are shown in the boxes. One representative of two experiments is shown. […]
A general note: Flow cytometry measures light scatter and fluorescence of single cells or particles in a stream.

Assay [4] deals with CD4+ cells from PBMC of HLA-DRB1*15-positive healthy individuals. As to the kind of experiment: Intracellular cytokine staining and flow cytometry of purified CD4+ cells (Treg phenotypes), HCV- healthy subjects. The class given is cell-based, human. Conditions: median (range), n = 3 HLA-DRB1*15+ healthy subjects; NS3_358-375 5 μM or variant pool 1 μM each peptide, 66 hours. Here is the method:
as §1, §2
Supplementary file 1743-422X-8-377-S3.DOC: Additional file 3 Figure S2. CD4+CD25+ and CD4+CD25- Tregs of a HCV- healthy individual. Experiments, controls, and data analysis were the same as described in Figure 4. A: Percentages of CD25+ and CD25- gated CD4+ cells. B: Percentages of CD25+ Th3 and Tr1 cells. C: Percentages of CD25- Th3 and Tr1 cells. A single representative of three experiments is shown. Click here for file

Assay [5] deals with PBMC from a HCV-infected patient B3019. As to the kind of experiment: T-cell proliferation (tritiated thymidine incorporation) with single wild type and variant peptides. The class given is cell-based, human. As to conditions: flow cytometry analysis of cells stimulated by wild type peptide.
Where [6] appears, read: cells obtained at about 1.5 years of HCV infection, Figure S3.
The mark [7] stands for this setting: median (range), n = 6 HLA-DRB1*15+ HCV+ patients, NS3_358-375 5 μM or variant pool 1 μM each peptide, 66 hours.

VIKGGRHLIFCHSKKKCD [NS3_358-375]: the “ratio of CD4+CD25+ cells (CD25+ gated CD4+ cells)” value in assay [1] (Figure 3A, representative experiment, NS3_358-375 5 μM, pools 1 μM each peptide, listed as wild-type peptide) is listed as 26.0%. For the same sequence, the “percentage of CD25-TGF-β+ cells among CD4+CD25- cells” value in assay [1] (Figure 3D, text value (upper two quadrants)) was found to be 12.7%. Also, the “CD25-IL-10+ Tr1 cells” value in assay [1] (PBMCs from another DRB1*15+ patient infected with HCV over 20 years, Figure S4) is 25%. Besides, in assay [1] (setting [6]), the “CD25+ IL-10-secreting Tr1 cells” value worked out at 2.9% and the “CD25- IL-10-secreting Tr1 cells” value is given as 7.6%. In assay [1] (setting [7]), the “CD25+ of CD4+ cells, HCV+ patients” value was 21.6 (18 - 27) %; the “IL-10+ of CD4+CD25+ cells, HCV+ patients” value is 6.51 (3.0 - 11) %; the “TGFβ+ IL-10+ of CD4+CD25+ cells, HCV+ patients” value was 7.85 (5.0 - 12) %; the “TGFβ+ of CD4+CD25+ cells, HCV+ patients” value was 55.4 (37 - 59) %. Besides, the “binding to HLA-DRB1*1501” value in assay [2] is recorded as “binds to HLA-DRB1*1501 well”. Besides, the “expression of Foxp3 and CTLA-4 compared to cells cultured with medium alone” value in assay [3] (CD25+ cells) is given as “down-regulated”. For the same sequence, in assay [3] (Figure 4A, one representative of two experiments), the “Foxp3 level in CD4+CD25+ cells (median value)” value stood at 77.8. Moreover, in assay [3] (Figure 4B, one representative of two experiments), the “CTLA-4 (CD152) level on CD4+CD25+ cells (median value)” value is recorded as 38.4. In assay [4], the “CD25+ of CD4+ cells, HCV- subjects” value is recorded as 10.1 (10 - 14) %; the “IL-10+ of CD4+CD25+ cells, HCV- subjects” value was 2.95 (2.6 - 3.2) %; the “TGFβ+ IL-10+ of CD4+CD25+ cells, HCV- subjects” value is 0.67 (0.5 - 2.5) %; the “TGFβ+ of CD4+CD25+ cells, HCV- subjects” value is 5.04 (2.0 - 8.5) %. For the same sequence, the “proportion of peripheral proliferating cells that were CD4+” value in assay [5] is on record as “greater than 95%”.
